In PubChem BioAssay (NCI):
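96-well plates; 48 h exposure; 5 concentrations. Endpoints by linear interpolation between flanking doses. Not reached: highest tested concentration assigned. TGI is the concentration that stops growth completely.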

How the values were obtained:
Experiment in all cases: NCI anticancer screen, dose series, 48 h
786-0 renal = test system: 786-0 renal
A549 NSCLC = test system: A549 NSCLC
CAKI-1 renal = test system: CAKI-1 renal
CCRF-CEM leukemia = test system: CCRF-CEM leukemia
COLO 205 colon = test system: COLO 205 colon
HOP-62 NSCLC = test system: HOP-62 NSCLC
HS 578T breast = test system: HS 578T breast
IGROV1 ovarian = test system: IGROV1 ovarian
KM12 colon = test system: KM12 colon
MCF7 breast = test system: MCF7 breast
MDA-MB-435 = test system: MDA-MB-435
NCI-H23 lung = test system: NCI-H23 lung
NCI-H460 lung = test system: NCI-H460 lung
NCI-H522 lung = test system: NCI-H522 lung
RXF 393 renal = test system: RXF 393 renal
SNB-19 CNS = test system: SNB-19 CNS
SNB-75 CNS = test system: SNB-75 CNS
SW-620 colon = test system: SW-620 colon
UACC-257 melanoma = test system: UACC-257 melanoma

Structure (SMILES) | TGI (786-0 renal) [µM] | TGI (A549 NSCLC) [µM] | TGI (CAKI-1 renal) [µM] | TGI (CCRF-CEM leukemia) [µM] | TGI (COLO 205 colon) [µM] | TGI (HOP-62 NSCLC) [µM] | TGI (HS 578T breast) [µM] | TGI (IGROV1 ovarian) [µM] | TGI (KM12 colon) [µM] | TGI (MCF7 breast) [µM] | TGI (MDA-MB-435) [µM] | TGI (NCI-H23 lung) [µM] | TGI (NCI-H460 lung) [µM] | TGI (NCI-H522 lung) [µM] | TGI (RXF 393 renal) [µM] | TGI (SNB-19 CNS) [µM] | TGI (SNB-75 CNS) [µM] | TGI (SW-620 colon) [µM] | TGI (UACC-257 melanoma) [µM]
COc1ccc(-c2c(=O)[nH]n3c(=S)nc(-c4ccccc4)[nH]c23)cc1OC | 33.9 | > 100 | 51.6 | 31.1 | 31.3 | 84.9 | > 100 | 56.7 | 35.8 | 36.9 | 39.2 | 58.3 | > 100 | 37.9 | 32.4 | 28.5 | 54 | 83.8 | 61.1
Nc1nc(Cl)c2ncn(Cc3ccc(CCl)cc3)c2n1 | 93.9 | 76.2 | 9.87 | > 100 | 13.4 | 27.3 | > 100 | 22.9 | 22.9 | 16.8 | 42.5 | 30.4 | 20 | 25.9 | 7.26 | 20 | 90.2 | 13.8 | 47.9
COC(=O)c1ccccc1CC1Cc2ccc3c(c2C1)CCC3 (stereo unspecified) | > 100 | > 100 | > 100 | 36.9 | 34.5 | > 100 | > 100 | > 100 | 92.1 | 30.1 | 57.9 | > 100 | > 100 | 46.9 | 52.9 | > 100 | > 100 | > 100 | 28.6
C=CC(c1ccccc1)[C@@]1(OC(C)=O)C(=O)C(=O)OC1C1COC(C)(C)O1 (stereo partly specified) | 33.4 | 34.5 | 11.7 | > 19.6 | 26.5 | 34.2 | 68.3 | 31.9 | 29.5 | 22.8 | 31.2 | 42.9 | 32.3 | 10.8 | 14.6 | 42.7 | 36.6 | 35.8 | 23.9
Cc1ccc(NN=NCCCCN)cc1 | > 100 | > 100 | > 100 | > 100 | > 100 | > 100 | > 100 | > 100 | > 100 | > 100 | > 100 | > 100 |  | > 100 | > 100 | > 100 | > 100 | > 100 | > 100
COc1cc(/C=C2\C[C@H]3[C@@H]4CC=C5C=C(N6CCCC6)CC[C@]5(C)[C@H]4CC[C@]3(C)C2=O)cc(OC)c1OC | > 24.2 | > 51.7 | 7.61 | > 100 | 10.7 | 7.17 | 6.21 | 3.83 | 4.37 | 11.3 | 5.83 | 7.96 |  | 2.88 | 4.04 | 18.4 | 15.9 | > 41.6 | 9.48
CN(CCCCN1CCCC1)CCCN(C)C(=O)Cc1ccc(Cl)c(Cl)c1 | 26.1 | 44.5 | 49.6 | 20.9 | 28.9 | 34.4 | 59.6 | 45.2 | 25.3 | 34.4 | 10.2 | 37.7 | 39.8 | 27.9 | 29.6 | 57.2 | 47.5 | 42.6 | 13.5
CCCCc1c2c(nc3c1CCCC3O)CCCC2 (stereo unspecified) | > 100 | > 100 | > 100 | > 100 | > 100 | > 100 | > 100 | > 100 | > 100 | > 100 | > 100 | > 100 | > 100 | > 100 | > 100 | > 100 | > 100 | > 100 | > 100
Cc1nc(Nc2ccccc2Cl)sc1C(=O)CC(=O)C(=O)Nc1c(Cl)cccc1Cl | 66 | > 100 | > 100 | > 100 | 38.7 | > 100 | > 100 | 63.5 | 91.4 | > 100 | 50 | > 100 | > 100 | 60.4 | 92.9 | > 100 | 88.6 | 65.5 | > 100
COC(=O)c1ccccc1C1CN=NC12Cc1ccc(C)c(C)c1C2=O (stereo unspecified) | > 100 | > 100 | > 100 | > 100 | > 100 | > 100 | > 100 | > 100 | > 100 | > 100 | > 100 | > 100 | > 100 | > 100 | > 100 | > 100 | > 100 | > 100 | > 100
CC(C)(C)C(=O)C(C(=O)C(C)(C)C)C(=O)C(C)(C)C | > 100 | > 100 | > 100 | > 100 | > 100 | > 100 | > 100 | > 100 | > 100 | > 100 | > 100 | > 100 | > 100 | > 100 | > 100 | > 100 | > 100 | > 100 | > 100
Cc1ccc(NC(=O)CSc2nc(C)nc3c2sc(=S)n3-c2ccccc2)cc1 | 6.92 | > 10 | > 10 | > 10 | > 10 | 5.08 | 6.3 | > 10 | > 10 | > 10 | > 10 | > 10 | > 10 | > 10 | 9.17 | > 10 | 4.84 | > 10 | > 10
